Data reported in patent publication US10508085B2, “Compounds and methods for IDO and TDO modulation, and indications therefor” (Plexxikon Inc., priority 2016, dated 2019).
Like-named read-outs stand apart in the source and are kept apart here.

Experiments:
[1] = molecular target: T1, Human Tryptophan 2,3-dioxygenase (TDO) (Homo sapiens, UniProt P48775); experiment: Human TDO enzymatic assay (kynurenine level); type: biochemical; details: 1 nM TDO, 350 μM L-Trp; geometric mean; read-out: TDO GMean: IC50 (μM) (Biochemical Assay)
T1 construct: His tag (N); made in house; host or cells: E. coli
T1 sequence (P48775 whole entry): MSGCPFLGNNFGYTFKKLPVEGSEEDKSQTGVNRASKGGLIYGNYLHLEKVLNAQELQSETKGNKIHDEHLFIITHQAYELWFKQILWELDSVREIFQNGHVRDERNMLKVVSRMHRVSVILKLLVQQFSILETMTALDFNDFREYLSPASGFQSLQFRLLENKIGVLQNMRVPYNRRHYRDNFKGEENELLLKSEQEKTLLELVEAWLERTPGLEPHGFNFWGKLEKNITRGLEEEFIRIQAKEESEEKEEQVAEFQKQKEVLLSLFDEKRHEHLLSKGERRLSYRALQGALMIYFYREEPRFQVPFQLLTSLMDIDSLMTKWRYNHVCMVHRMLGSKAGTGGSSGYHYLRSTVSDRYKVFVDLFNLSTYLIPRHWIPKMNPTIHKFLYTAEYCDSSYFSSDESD
How it was run: (§1)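 IDO conditions: 6 nM His-IDO, 10 μM L-Trp, 5 μM methylene blue, 20 min, RT. TDO conditions: 1 nM His-TDO, 350 μM L-Trp, 0.4 μM methylene blue, 70 min, RT. Both used pH 6.5 phosphate plus ascorbate/catalase, TCA stop at 50° C, kynurenine readout, nonlinear-regression IC50.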

[2] = molecular target: T2, human IDO (IDO1-expressing HEK293 cells) (Homo sapiens, UniProt P14902); experiment: Cell based kynurenine assay, IDO1-expressing HEK293 cell clones; details: IDO1-expressing HEK293 cells, geometric mean, read-out: HEK293 IDO1 Kynurenine GMean IC50 (μM) (Cellular Assay)
T2 construct: expressed in transfected cells
T2 sequence (P14902 whole entry): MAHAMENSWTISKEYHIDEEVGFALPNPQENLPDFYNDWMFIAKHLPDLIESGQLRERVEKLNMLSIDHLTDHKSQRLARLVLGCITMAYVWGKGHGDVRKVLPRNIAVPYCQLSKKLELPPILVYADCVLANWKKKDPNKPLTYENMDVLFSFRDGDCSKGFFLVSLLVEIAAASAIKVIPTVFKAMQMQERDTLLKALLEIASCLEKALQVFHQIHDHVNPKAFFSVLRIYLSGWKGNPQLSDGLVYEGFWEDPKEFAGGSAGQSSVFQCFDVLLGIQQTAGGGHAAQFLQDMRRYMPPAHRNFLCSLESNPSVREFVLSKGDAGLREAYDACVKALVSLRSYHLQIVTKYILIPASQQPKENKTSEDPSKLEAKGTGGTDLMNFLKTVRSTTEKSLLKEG
How it was run: (§2)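 Supernatant kynurenine was measured after 24 h exposure of stably transfected HEK293 cells (human IDO1 or TDO, 2.5×10^4/well) to serially diluted compound. Percent inhibition used 0.2% DMSO cell wells as high and media-only wells as low controls; IC50 fitted by nonlinear regression.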

[3] = molecular target: T3, human TDO (TDO-expressing HEK293 cells) (Homo sapiens, UniProt P48775); experiment: Cell based kynurenine assay, TDO-expressing HEK293 cell clones; details: TDO-expressing HEK293 cells, geometric mean, read-out: HEK293 TDO Kynurenine GMean IC50 (μM) (Cellular Assay)
T3 construct: expressed in transfected cells
T3 sequence (P48775 whole entry): as the sequence (P48775 whole entry) above
How it was run: as §2

[4] = molecular target: T4, Human Indoleamine 2,3-dioxygenase (IDO) (Homo sapiens, UniProt P14902); experiment: Human IDO enzymatic assay (kynurenine level); type: biochemical; details: 6 nM IDO, 10 μM L-Trp; geometric mean; read-out: IDO1 GMean: IC50 (μM) (Biochemical Assay)
T4 construct: His tag (N); made in house; host or cells: E. coli
T4 sequence (P14902 whole entry): as the sequence (P14902 whole entry) above
How it was run: as §1

Structure (SMILES)	IC50 [1] [µM]	IC50 ([2]; 24 hours) [µM]	IC50 ([3]; 24 hours) [µM]	IC50 [4] [µM]	IC50 ([2]; 24 hours incubation) [µM]	IC50 ([3]; 24 hours incubation) [µM]
CC(C)(C1CCN(C(=O)N[C@H]2CC[C@H](C)CC2)CC1)C(O)c1cc(Cl)cc2cn[nH]c12 (stereo partly shown) [Compound P-0449, 4-(1-(5-chloro-1H-indazol-7-yl)-1-hydroxy-2-methylpropan-2-yl)-N-((1r,4r)-4-methylcyclohexyl) piperidine-1-carboxamide]	0.0001 to 10	0.0001 to 10	0.0001 to 10	0.0001 to 10		
CC(C)NS(=O)(=O)N1CCC(C(F)(F)C(O)c2cc(Cl)cc3cn[nH]c23)CC1 (stereo not shown) [Compound P-0332, 4-(2-(5-chloro-1H-indazol-7-yl)-1,1-difluoro-2-hydroxyethyl)-N-isopropylpiperidine-1-sulfonamide]	0.0001 to 10			0.0001 to 10	0.0001 to 10	0.0001 to 10
OC(c1cccc2cncn12)C1CC2CCC1C2 (stereo not shown) [Compound P-0059, bicyclo[2.2.1]heptan-2-yl(imidazo[1,5-a]pyridin-5-yl)methanol]	0.0001 to 10			0.0001 to 10	0.0001 to 10	> 10
CC(=O)N1CCC(C(F)(F)C(O)c2c3c(cc4cn[nH]c24)CC3)CC1 (stereo not drawn) [Compound P-0129, 1-(4-(2-(5,6-dihydro-1H-cyclobuta[f]indazol-7-yl)-1,1-difluoro-2-hydroxyethyl)piperidin-1-yl)ethan-l-one]	0.0001 to 10			0.0001 to 10	0.0001 to 10	0.0001 to 10
CC(C)(C1CCN(C(=O)c2ccccc2)CC1)C(O)c1c(F)c(Cl)cc2cn[nH]c12 (stereo not shown) [Compound P-0417, (4-(1-(5-chloro-6-fluoro-1H-indazol-7-yl)-1-hydroxy-2-methylpropan-2-yl)piperidin-1-yl)(phenyl) methanone]	0.0001 to 10	0.0001 to 10	0.0001 to 10	0.0001 to 10		
CC(C)(C1CCN(C(=O)Nc2ccc(F)cc2)CC1)[C@H](O)c1c(F)c(Cl)cc2cn[nH]c12 [Compound P-0512, (S)-4-(1-(5-chloro-6-fluoro-1H-indazol-7-yl)-1-hydroxy-2-methylpropan-2-yl)-N-(4-fluorophenyl) piperidine-1-carboxamide]	0.0001 to 10	0.0001 to 10	0.0001 to 10	0.0001 to 10		
CC1(C(O)c2cc(Cl)cc3cn[nH]c23)CCCCC1 (stereo not shown) [Compound P-0006, (5-chloro-1H-indazol-7-yl)(1-methylcyclohexyl)methanol]	0.0001 to 10			0.0001 to 10	0.0001 to 10	0.0001 to 10
CC(C)(C1CCN(C(=O)NCC2CC2)CC1)C(O)c1cc(Cl)cc2cn[nH]c12 (stereo not shown) [Compound P-0473, 4-(1-(5-chloro-1H-indazol-7-yl)-1-hydroxy-2-methylpropan-2-yl)-N-(cyclopropylmethyl) piperidine-1-carboxamide]	0.0001 to 10	0.0001 to 10	0.0001 to 10	0.0001 to 10		
CC(C)(C1CCN(C(=O)NS(=O)(=O)c2ccccc2)CC1)C(O)c1cc(Cl)cc2cn[nH]c12 (stereo not shown) [Compound P-0353, 4-(1-(5-chloro-1H-indazol-7-yl)-1-hydroxy-2-methylpropan-2-yl)-N-(phenylsulfonyl) piperidine-1-carboxamide]	0.0001 to 10			0.0001 to 10	0.0001 to 10	0.0001 to 10
CC(C)(C1CCN(C(=O)Nc2ccc(C#N)cc2)CC1)C(O)c1cc(Cl)cc2cn[nH]c12 (stereo not shown) [Compound P-0168, 4-(1-(5-chloro-1H-indazol-7-yl)-1-hydroxy-2-methylpropan-2-yl)-N-(4-cyanophenyl)piperidine-1-carboxamide]	0.0001 to 10			0.0001 to 10	0.0001 to 10	0.0001 to 10
CC(C)(C1CCOCC1)C(O)c1c(F)c(Cl)cc2cn[nH]c12 (stereo not shown) [Compound P-0232, 1-(5-chloro-6-fluoro-1H-indazol-7-yl)-2-methyl-2-(tetrahydro-2H-pyran-4-yl)propan-1-ol]	0.0001 to 10			0.0001 to 10	0.0001 to 10	0.0001 to 10
OC(c1cc(Cl)cc2cn[nH]c12)C1CCCC1 (stereo not shown) [Compound P-0005, (5-chloro-1H-indazol-7-yl)(cyclopentyl)methanol]	0.0001 to 10			0.0001 to 10	0.0001 to 10	0.0001 to 10
CC(C)(C1CCN(C(=O)Nc2ccccc2C(F)(F)F)CC1)C(O)c1cc(Cl)cc2cn[nH]c12 (stereo not shown) [Compound P-0401, 4-(1-(5-chloro-1H-indazol-7-yl)-1-hydroxy-2-methylpropan-2-yl)-N-(2-(trifluoromethyl)phenyl)piperidine-1-carboxamide]	0.0001 to 10			0.0001 to 10	0.0001 to 10	0.0001 to 10
CC(C)OC(=O)N1CCC(C(C)(C)C(O)c2cc(Cl)cc3cn[nH]c23)CC1 (stereo not shown) [Compound P-0323, isopropyl 4-(1-(5-chloro-1H-indazol-7-yl)-1-hydroxy-2-methylpropan-2-yl)piperidine-1-carboxylate]	0.0001 to 10			0.0001 to 10	0.0001 to 10	0.0001 to 10
CC(C)(C1CCN(C(=O)Nc2ccccc2F)CC1)C(O)c1cc(Cl)cc2cn[nH]c12 (stereo not shown) [Compound P-0178, 4-(1-(5-chloro-1H-indazol-7-yl)-1-hydroxy-2-methylpropan-2-yl)-N-(2-fluorophenyl)piperidine-1-carboxamide]	0.0001 to 10			0.0001 to 10	0.0001 to 10	0.0001 to 10
OC(c1cc(Cl)cc2cn[nH]c12)C1CC(F)(F)C1 (stereo not shown) [Compound P-0017, (5-chloro-1H-indazol-7-yl)(3,3-difluorocyclobutyl)methanol]	0.0001 to 10			0.0001 to 10	0.0001 to 10	0.0001 to 10
OC1(c2cc(Cl)cc3cn[nH]c23)CC2(CCOCC2)C1 [Compound P-0029, 2-(5-chloro-1H-indazol-7-yl)-7-oxaspiro[3.5]nonan-2-ol]	0.0001 to 10			0.0001 to 10	0.0001 to 10	0.0001 to 10
COC12CCC(C(O)c3cc(Cl)cc4cn[nH]c34)(CC1)CC2 (stereo not shown) [Compound P-0136, (5-chloro-1H-indazol-7-yl)(4-methoxybicyclo[2.2.2]octan-1-yl)methanol]	0.0001 to 10			0.0001 to 10	0.0001 to 10	0.0001 to 10
O=C(C1CCC1)N1CCC(C(F)(F)C(O)c2c(F)c(Cl)cc3cn[nH]c23)CC1 (stereo not shown) [Compound P-0409, (4-(2-(5-chloro-6-fluoro-1H-indazol-7-yl)-1,1-difluoro-2-hydroxyethyl)piperidin-1-yl)(cyclobutyl) methanone]	0.0001 to 10	0.0001 to 10	0.0001 to 10	0.0001 to 10		
OC(c1cc(Cl)cc2cn[nH]c12)C12CCC(CC1)C2 (stereo not shown) [Compound P-0229, bicyclo[2.2.1]heptan-1-yl(5-chloro-1H-indazol-7-yl)methanol]	0.0001 to 10			0.0001 to 10	0.0001 to 10	0.0001 to 10
CC(C)(C1CCN(C(=O)NCCS(C)(=O)=O)CC1)C(O)c1cc(Cl)cc2cn[nH]c12 (stereo not shown) [Compound P-0452, 4-(1-(5-chloro-1H-indazol-7-yl)-1-hydroxy-2-methylpropan-2-yl)-N-(2-(methylsulfonyl)ethyl)piperidine-1-carboxamide]	0.0001 to 10	0.0001 to 10	0.0001 to 10	0.0001 to 10		
O=C(Cc1ccc(Cl)nc1)N1CCC(C(F)(F)C(O)c2cc(Cl)cc3cn[nH]c23)CC1 (stereo not shown) [Compound P-0495, 1-(4-(2-(5-chloro-1H-indazol-7-yl)-1,1-difluoro-2-hydroxyethyl)piperidin-1-y1)-2-(6-chloropyridin-3-yl)ethan-1-one]	0.0001 to 10	0.0001 to 10	0.0001 to 10	0.0001 to 10		
CC(C)(CC1CCOCC1)C(O)c1cc(Cl)cc2cn[nH]c12 (stereo not shown) [Compound P-0254, 1-(5-chloro-1H-indazol-7-yl)-2,2-dimethyl-3-(tetrahydro-2H-pyran-4-yl)propan-1-ol]	0.0001 to 10			0.0001 to 10	0.0001 to 10	0.0001 to 10
CC(=O)N1C[C@H]2CC[C@@H](C1)[C@@H]2C(F)(F)C(O)c1cc(Cl)cc2cn[nH]c12 (stereo partly drawn) [Compound P-0303, 1-((1R,5S,8s)-8-(2-(5-chloro-1H-indazol-7-yl)-1,1-difluoro-2-hydroxyethyl)-3-azabicyclo[3.2.1]octan-3-yl)ethan-1-one]	0.0001 to 10			0.0001 to 10	0.0001 to 10	0.0001 to 10
O=C(NCC1CCS(=O)(=O)CC1)N1CCC(C(F)(F)C(O)c2cc(Cl)cc3cn[nH]c23)CC1 (stereo not shown) [Compound P-0467, 4-(2-(5-chloro-1H-indazol-7-yl)-1,1-difluoro-2-hydroxyethyl)-N-((1,1-dioxidotetrahydro-2H-thiopyran-4-yl)methyl)piperidine-1-carboxamide]	0.0001 to 10	0.0001 to 10	> 10	0.0001 to 10		
